target: T1, full-length human PKCι (Homo sapiens, UniProt P41743); assay: PKCι IC50 IMAP fluorescence polarisation assay, full-length enzyme; type: biochemical; conditions: full length PKCi at 15 μM ATP; read-out: IC50 in IMAP assay against full length PKCi
T1 construct: Recombinant, full-length human PKCι expressed in Sf21 insect cells is also commercially available; purchased; host or cells: Sf21 insect cells
T1 sequence (P41743 1-596): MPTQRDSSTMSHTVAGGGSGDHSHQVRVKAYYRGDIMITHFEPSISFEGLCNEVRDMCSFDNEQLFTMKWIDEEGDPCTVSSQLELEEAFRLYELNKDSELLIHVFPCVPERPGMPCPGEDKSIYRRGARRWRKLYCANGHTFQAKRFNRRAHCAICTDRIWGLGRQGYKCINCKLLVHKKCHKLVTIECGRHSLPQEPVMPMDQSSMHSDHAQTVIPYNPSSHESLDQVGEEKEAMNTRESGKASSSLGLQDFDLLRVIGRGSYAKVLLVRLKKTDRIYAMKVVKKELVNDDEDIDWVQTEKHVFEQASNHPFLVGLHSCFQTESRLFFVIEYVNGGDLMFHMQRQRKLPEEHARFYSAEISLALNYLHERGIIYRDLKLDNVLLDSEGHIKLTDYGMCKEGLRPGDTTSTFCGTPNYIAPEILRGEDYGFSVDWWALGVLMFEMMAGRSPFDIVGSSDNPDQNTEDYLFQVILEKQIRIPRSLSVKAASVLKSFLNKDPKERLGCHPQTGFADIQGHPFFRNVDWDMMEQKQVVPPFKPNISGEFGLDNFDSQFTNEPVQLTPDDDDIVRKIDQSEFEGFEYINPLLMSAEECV

Row | IC50 [µM] | Structure (SMILES)
1 | 10 to 40 | COc1ccc(C(C)C)cc1-c1c(C)sc2c(NC[C@@H](N)Cc3ccccc3)nc(-c3ccncc3)nc12 [compound 462, (S)-N*1*-[7-(5-Isopropyl-2-methoxy-phenyl)-6-methyl-2-pyridin-4-yl-thieno[3,2-d]pyrimidin-4-yl]-3-phenyl-propane-1,2-diamine]
2 | 0.1 to 1 | Cc1sc2c(NC[C@@H](N)Cc3ccccc3)nc(-c3ccncc3)nc2c1C [compound 325, (S)-N*1*-(6,7-Dimethyl-2-pyridin-4-yl-thieno[3,2-d]pyrimidin-4-yl)-3-phenyl-propane-1,2-diamine]
3 | < 0.1 | C[C@@H](F)C#Cc1csc2c(NC[C@@H](N)Cc3ccccc3)nc(-c3ccncc3)nc12 [compound 544, (S)—N*1*-[7-(3-Fluoro-but-1-ynyl)-2-pyridin-4-yl-thieno[3,2-d]pyrimidin-4-yl]-3-phenyl-propane-1,2-diamine]
4 | 10 to 40 | COc1ccc(OC)c(-c2c(C)sc3c(NC[C@@H](N)Cc4ccccc4)nc(-c4ccncc4)nc23)c1 [compound 466, (S)-N*1*-[7-(2,5-Dimethoxy-phenyl)-6-methyl-2-pyridin-4-yl-thieno[3,2-d]pyrimidin-4-yl]-3-phenyl-propane-1,2-diamine]
5 | < 0.1 | CC(C)(O)C#Cc1csc2c(NC[C@@H](N)Cc3ccccc3)nc(-c3ccncc3)nc12 [compound 510, 4-[4-((S)-2-Amino-3-phenyl-propylamino)-2-pyridin-4-yl-thieno[3,2-d]pyrimidin-7-yl]-2-methyl-but-3-yn-2-ol]
6 | 10 to 40 | O=S(=O)(Nc1cc(-c2nc(N[C@@H]3CCNC3)c3sccc3n2)ccn1)c1ccccc1 [compound 576, N-{4-[4-((R)-Pyrrolidin-3-ylamino)-thieno[3,2-d]pyrimidin-2-yl]-pyridin-2-yl}-benzenesulfonamide]
7 | < 0.1 | C/C=C\c1csc2c(NC[C@@H](N)Cc3ccccc3)nc(-c3ccncc3)nc12 [compound 407, (S)-3-Phenyl-N*1*-[7-((Z)-propenyl)-2-pyridin-4-yl-thieno[3,2-d]pyrimidin-4-yl]-propane-1,2-diamine]
8 | 10 to 40 | CC(C)(C)c1sc2c(NC[C@@H](N)Cc3ccccc3)nc(-c3ccncc3)nc2c1-c1cccc(N)c1 [compound 444, (S)-N*1*-[7-(3-Amino-phenyl)-6-tert-butyl-2-pyridin-4-yl-thieno[3,2-d]pyrimidin-4-yl]-3-phenyl-propane-1,2-diamine]
9 | 1 to 10 | Cc1ccccc1Nc1csc2c(N[C@@H]3CCNC3)nc(-c3ccncc3F)nc12 [compound 498, 2-(3-Fluoro-pyridin-4-yl)-N*4*-(R)-pyrrolidin-3-yl-N*7*-o-tolyl-thieno[3,2-d]pyrimidine-4,7-diamine]
10 | 1 to 10 | Cn1cc(-c2csc3c(NC[C@@H](N)Cc4ccccc4)nc(-c4ccncc4)nc23)cn1 [compound 411, (S)-N*1*-[7-(1-Methyl-1H-pyrazol-4-yl)-2-pyridin-4-yl-thieno[3,2-d]pyrimidin-4-yl]-3-phenyl-propane-1,2-diamine]
11 | 1 to 10 | Cc1[nH]ncc1-c1nc(NC[C@@H](N)Cc2ccccc2)c2sccc2n1 [compound 634, (S)-N*1*-[2-(5-Methyl-1H-pyrazol-4-yl)-thieno[3,2-d]pyrimidin-4-yl]-3-phenyl-propane-1,2-diamine]
12 | 0.1 to 1 | CC(C)(O)C#Cc1csc2c(NC[C@@H](N)Cc3ccccc3)nc(-c3ccncc3F)nc12 [compound 509, 4-[4-((S)-2-Amino-3-phenyl-propylamino)-2-(3-fluoro-pyridin-4-yl)-thieno[3,2-d]pyrimidin-7-yl]-2-methyl-but-3-yn-2-ol]
13 | 1 to 10 | C#Cc1sc2c(N[C@@H]3CCNC3)nc(-c3ccncc3)nc2c1C [compound 543, (6-Ethynyl-7-methyl-2-pyridin-4-yl-thieno[3,2-d]pyrimidin-4-yl)-(R)-pyrrolidin-3-yl-amine]
14 | 0.1 to 1 | N[C@H](CNc1nc(-c2ccncc2)nc2c(-c3ccc(F)cc3)csc12)Cc1ccccc1 [compound 409, (S)-N*1*-[7-(4-Fluoro-phenyl)-2-pyridin-4-yl-thieno[3,2-d]pyrimidin-4-yl]-3-phenyl-propane-1,2-diamine]
15 | 1 to 10 | CC(C)(C)c1sc2c(NC[C@@H](N)Cc3ccccc3)nc(-c3ccncc3)nc2c1-c1ccn[nH]1 [compound 468, (S)-N*1*-[6-tert-Butyl-7-(2H-pyrazol-3-yl)-2-pyridin-4-yl-thieno[3,2-d]pyrimidin-4-yl]-3-phenyl-propane-1,2-diamine]
16 | 1 to 10 | N[C@H](CNc1nc(-c2ccncc2)nc2c(-c3cccnc3)csc12)Cc1ccccc1 [compound 410, (S)-3-Phenyl-N*1*-(2-pyridin-4-yl-7-pyridin-3-yl-thieno[3,2-d]pyrimidin-4-yl)-propane-1,2-diamine]
17 | 1 to 10 | CC(C)(C)c1sc2c(NC[C@@H](N)Cc3ccccc3)nc(-c3ccncc3)nc2c1-c1cn[nH]c1 [compound 437, (S)-N*1*-[6-tert-Butyl-7-(1H-pyrazol-4-yl)-2-pyridin-4-yl-thieno[3,2-d]pyrimidin-4-yl]-3-phenyl-propane-1,2-diamine]
18 | < 0.1 | N[C@H](CNc1nc(-c2ccncc2)nc2c(C#CC3(O)CCC3)csc12)Cc1ccccc1 [compound 539, 1-[4-((S)-2-Amino-3-phenyl-propylamino)-2-pyridin-4-yl-thieno[3,2-d]pyrimidin-7-ylethynyl]-cyclobutanol]
19 | 0.1 to 1 | Brc1csc2c(N[C@@H]3CCCNC3)nc(-c3ccncc3)nc12 [compound 343, (7-Bromo-2-pyridin-4-yl-thieno[3,2-d]pyrimidin-4-yl)-(R)-piperidin-3-yl-amine]
20 | 10 to 40 | Cc1ncccc1-c1c(C)sc2c(NC[C@@H](N)Cc3ccccc3)nc(-c3ccncc3)nc12 [compound 459, (S)-N*1*-[6-Methyl-7-(2-methyl-pyridin-3-yl)-2-pyridin-4-yl-thieno[3,2-d]pyrimidin-4-yl]-3-phenyl-propane-1,2-diamine]
21 | 10 to 40 | F[C@@H]1CNC[C@@H]1Nc1nc(-c2ccncc2)nc2ccsc12 [compound 321, ((3S,4R)-4-Fluoro-pyrrolidin-3-yl)-(2-pyridin-4-yl-thieno[3,2-d]pyrimidin-4-yl)-amine]
22 | < 0.1 | N[C@H](CNc1nc(-c2ccncc2)nc2c(C#CC3(O)CC3)csc12)Cc1ccccc1 [compound 532, 1-[4-((S)-2-Amino-3-phenyl-propylamino)-2-pyridin-4-yl-thieno[3,2-d]pyrimidin-7-ylethynyl]-cyclopropanol]
23 | 10 to 40 | CC(C)(C)c1sc2c(NC[C@@H](N)Cc3ccccc3)nc(-c3ccncc3)nc2c1-c1ccc(F)cc1 [compound 442, (S)-N*1*-[6-tert-Butyl-7-(4-fluoro-phenyl)-2-pyridin-4-yl-thieno[3,2-d]pyrimidin-4-yl]-3-phenyl-propane-1,2-diamine]
24 | 1 to 10 | NC(CNc1nc(-c2ccncc2F)nc2c(-c3cccnc3)csc12)Cc1ccccc1 (stereo in doubt) [compound 423, (R)-N*1*-[2-(3-Fluoro-pyridin-4-yl)-7-pyridin-3-yl-thieno[3,2-d]pyrimidin-4-yl]-3-phenyl-propane-1,2-diamine]
25 | 1 to 10 | CN(C)C(=O)Nc1cc(-c2nc(N[C@@H]3CCNC3)c3sccc3n2)ccn1 [compound 581, 1,1-Dimethyl-3-{4-[4-((R)-pyrrolidin-3-ylamino)-thieno[3,2-d]pyrimidin-2-yl]-pyridin-2-yl}-urea]
26 | 0.1 to 1 | Cc1sc2c(N[C@@H]3CCNC3)nc(-c3ccncc3)nc2c1C#CC(C)(C)O [compound 503, 2-Methyl-4-[6-methyl-2-pyridin-4-yl-4-((R)-pyrrolidin-3-ylamino)-thieno[3,2-d]pyrimidin-7-yl]-but-3-yn-2-ol]
27 | 10 to 40 | C[C@H](O)C#Cc1csc2c(N[C@@H]3CCNC3)nc(-c3ccncc3F)nc12 [compound 527, (S)-4-[2-(3-Fluoro-pyridin-4-yl)-4-((R)-pyrrolidin-3-ylamino)-thieno[3,2-d]pyrimidin-7-yl]-but-3-yn-2-ol]
28 | 10 to 40 | Cc1[nH]ncc1-c1nc(N[C@@H]2CCNC2)c2sccc2n1 [compound 633, [2-(5-Methyl-1H-pyrazol-4-yl)-thieno[3,2-d]pyrimidin-4-yl]-(R)-pyrrolidin-3-yl-amine]
29 | 10 to 40 | Cc1sc2c(NC[C@@H](N)Cc3ccccc3)nc(-c3ccncc3)nc2c1-c1cc(F)ccc1OC(C)C [compound 446, (S)-N*1*-[7-(5-Fluoro-2-isopropoxy-phenyl)-6-methyl-2-pyridin-4-yl-thieno[3,2-d]pyrimidin-4-yl]-3-phenyl-propane-1,2-diamine]

same assay, conditions: full length PKCi at 15 μM ATP; read-out: IC50 in IMAP assay against full length PKCi (Activity)

Row | IC50 [µM] | Structure (SMILES)
30 | 1 to 10 | N[C@H](CNc1nc(-c2ccncc2)nc2sc3c(c12)CCCC3)Cc1ccncc1 [compound 56, (S)-3-Pyridin-4-yl-N*1*-(2-pyridin-4-yl-5,6,7,8-tetrahydro-benzo[4,5]thieno[2,3-d]pyrimidin-4-yl)-propane-1,2-diamine]
31 | 10 to 40 | CC(C)C(=O)N1CCc2c(sc3nc(-c4ccncc4)nc(NCCN)c23)C1 [compound 107, 1-[4-(2-Amino-ethylamino)-2-pyridin-4-yl-5,8-dihydro-6H-pyrido[4′,3′:4,5]thieno[2,3-d]pyrimidin-7-yl]-2-methyl-propan-1-one]

— US10183950B2, “Thienopyrimidine inhibitors of atypical protein kinase C” (Cancer Research Technology Limited, priority 2011, dated 2019)
